This note sets out measurements from ChEMBL document CHEMBL1139430, “Synthesis of a natural product-inspired eight-membered ring lactam library via ring-closing metathesis” (Bioorg Med Chem Lett, 2008).

Molecules are shown by their SMILES.

In assay [1] the test system is L1210. As to the kind of experiment: Antiproliferative activity against mouse L1210 cells at day 4 by MTS/PMS assay. The class given is functional, cell-based. Conditions: L1210, 96 h.
The subject of assay [2] is HL-60. Nature of the assay: Antiproliferative activity against human HL60 cells at 62.5 to 156.25 uM at day 4 by MTS/PMS assay. The class given is functional.
Assay [3] relates to HL-60. Nature of the assay: Antiproliferative activity against human HL60 cells at day 4 by MTS/PMS assay. Conditions: HL-60, 96 h. The class given is functional, cell-based.
Assay [4] can be described thus: Antiproliferative activity against mouse Pan02 cells at day 4 by MTS/PMS assay. The class given is functional, cell-based. Conditions: Pan02, 96 h.

With `COc1ccc([C@H]2/C=C\C[C@H](NS(=O)(=O)c3cccc4cccnc34)CC(=O)N2Cc2ccc(F)cc2)cc1`, half-maximal inhibition in assay [1] (IC50) required 15.4 µM. For the same compound, the “inhibition (INH)” value in assay [2] is recorded as <50%.

Consider `COc1ccc(C(=O)N[C@H]2C/C=C\[C@H](c3ccc(OC)cc3)N(Cc3ccc(F)cc3)C(=O)C2)cc1` (relative stereo), for which the IC50 (commonly the concentration that inhibits the measured activity by half) in assay [1] was 25.2 µM; in assay [3], 40.1 µM; in assay [4] it was 34.9 µM.

As to `CCCCS(=O)(=O)N[C@H]1C/C=C\[C@H](c2ccc(OC)cc2)N(Cc2ccc(F)cc2)C(=O)C1` (relative stereo), half-maximal inhibition in assay [1] (IC50) was put at 37.9 µM. Moreover, in assay [2], the “inhibition (INH)” value is on record as <50%.

Turning to `COc1ccc([C@H]2/C=C\C[C@H](NS(=O)(=O)c3ccc(C)cc3)CC(=O)N2Cc2ccc(F)cc2)cc1` (relative stereo), the IC50 in assay [1] was 11 µM. Besides, the “inhibition (INH)” value in assay [2] is recorded as <50%.

For the compound `COc1ccc([C@H]2/C=C\C[C@H](NC(=O)c3ccccc3)CC(=O)N2Cc2ccc(F)cc2)cc1` (relative stereo), the half-maximal inhibitory concentration (IC50) in assay [1] worked out at 27.1 µM; in assay [3], 54.7 µM; in assay [4], 40.6 µM.

In assay [1], `COc1ccc([C@H]2/C=C\C[C@H](NC(=O)C3CCCC3)CC(=O)N2Cc2ccc(F)cc2)cc1` (relative stereo) yielded an IC50 of 40.1 µM. Besides, the “inhibition (INH)” value in assay [2] is recorded as <50%.

Turning to `COc1ccc([C@H]2/C=C\C[C@H](NS(=O)(=O)c3ccc4ccccc4c3)CC(=O)N2Cc2ccc(F)cc2)cc1` (relative stereo), inhibition in assay [1] was half-maximal at 8.5 µM (IC50). Moreover, the “inhibition (INH)” value in assay [2] is recorded as <50%.
